Positions of bridges follow the written chain, without caps; N, C: chain ends. Non-standard residues stand in square brackets, D forms with d. Residues, ends and D or L forms follow the SMILES beside them. Phe(4-NO2) = N[C@@H](Cc1ccc([N+](=O)[O-])cc1)C(=O)O; dPhe(4-NO2) = N[C@H](Cc1ccc([N+](=O)[O-])cc1)C(=O)O; 2Nal = N[C@@H](Cc1ccc2ccccc2c1)C(=O)O; NMeA = CN[C@@H](C)C(=O)O
Experiments:
[1] = system: SSTR2; test: Cyclic AMP accumulation in intact cells (forskalin stimulated, adrenal binding protein method); type: cell-based; conditions: % intrinsic activity
Description: Cyclic AMP accumulation assays are used to determine the functional coupling of somatostatin receptors to effectors. All five cloned somatostatin receptors inhibit cyclic AMP accumulation and adenylyl cyclone activity ^1 ^,2,3,4,5. This evaluation measures cyclic AMP accumulation from intact cells using the adrenal binding protein method. Signal transduction by somatostatin is mediated by lowering intracellular c-AMP levels. This functional assay measures the ability of the test compound to inhibit the effect of somatostatin on forskalin stimulated c-AMP levels. ^1 K. Yasuda, S. Rens-Damiano, C. D. Breder, S. F. Law, C. B. Saper, T. Reisine and G. I. Bell, J. Biol. Chem. 267,20422-20428 (1992). ^2 J. F. Bruno, Y. Xu, J. Song and M. Berelowitz, Proc. Natl. Acad. Sci. USA 89, 11151-11155 (1992). ^3 A. M. O'Carrol, S. J. Lolait, M. König and L. Mahan, Mol. Pharmacol. 42, 939-946 (1992). ^4 J. R. Hadcock, J. Strnad and C. M. Eppler, Mol. Pharmacol. 45, 410-416 (1994). ^5 J. Strnad, C. M. Eppler, M. Corbett and J. R. Hadcock, Biochem. Biophys. Res. Commun.191, 968-976 (1993).
Bovine adrenal gland extracts are prepared according to the method of Brown et al^6 with minor modifications. […] Two-four adrenals are thawed and the cortices are separated on ice: chopped into small pieces; resuspended in 1.5 volumes of buffer containing 0.25 M sucrose, 50 mM Tris-HCl pH 7.4, 25 mM KCl, 5 mM MgCl2 and protease inhibitors (5 µg/ml leupeptin, 5µg/ml aprotinin, 100 µg/ml bacitracin, and 100 µg/ml benzamidine; homogenized with a Polytron and centrifuged for 5 minutes. The resultant supernatant is saved and centrifuged for 15 minutes. This resultant supernatant is saved and stored as 1 mL aliquots at -80°C. Four adrenals glands are usually sufficient to prepare 30-50 one mL aliquots. Each preparation is tested with standards at different dilutions before use in the following experiment. ^6 B. L. Brown, J. D. M. Albano, R. P. Ekins and A. M. Sgherzi, Biochem. J. 121, 561-562 (1971).
Somatostatin-mediated inhibition of cyclic AMP accumulation is measured in intact cells co-incubated with the diterpene forskalin (5 µM) which activates adenylyl cyclase directly and stimulates cyclic AMP accumulation in cells. The medium is aspirated from two 100 mm plates of cells, a 5 mL portion of phosphate-buffered saline containing 2 mM EDTA is added to each plate. The cells are washed off the plate, without scraping. The cells are then pelleted and resuspended in Kreb's Ringers Phosphate (KRP) containing 2 mM CaCl2 (added fresh), washed once and resuspended in 2 ml of KRP with a CaCl2 containing 100 µM IBMX. The cells are counted and the concentration of cells is adjusted to 50,000/70 µl and incubated 15 minutes at room temperature before starting the assay. […]

[2] = target: SSTR2 (Rattus norvegicus, UniProt P30680); test: Competitive binding, displacement of [125I]Tyr11 S-14; set-up: expressed in transfected cells; conditions: [125I]Tyr11 S-14 250 pM, room temperature 2 hours
Sequence of SSTR2 (Rattus norvegicus, UniProt P30680) (P30680 whole entry): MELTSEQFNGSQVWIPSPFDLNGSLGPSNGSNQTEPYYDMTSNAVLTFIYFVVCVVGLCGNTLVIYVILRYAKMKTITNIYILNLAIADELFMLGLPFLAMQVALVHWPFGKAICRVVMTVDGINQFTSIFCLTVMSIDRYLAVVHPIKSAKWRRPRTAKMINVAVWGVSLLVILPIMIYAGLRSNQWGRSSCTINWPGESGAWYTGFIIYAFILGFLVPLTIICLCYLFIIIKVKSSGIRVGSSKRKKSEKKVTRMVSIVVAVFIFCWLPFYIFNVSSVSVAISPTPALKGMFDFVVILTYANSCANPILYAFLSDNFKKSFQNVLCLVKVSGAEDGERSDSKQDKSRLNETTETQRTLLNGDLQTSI
Procedure: In this evaluation the concentration of test compound required to displace 50% of somatostatin, SRIF, from the SRIF receptor subtypes expressed in mammalian cells is measured, i.e., the concentration required to inhibit 50% of [^125I] Tyr^11 S-14 (Amersham) (IC50) from binding to the SRIF receptor subtypes.
Radiolabeled SRIF is mixed with pituitary cells, the test compound is added, the mixture is incubated and the radioactivity is measured as compared to control. Reduced radioactivity indicates successful competitive binding of the test compound to the pituitary cell receptor. The concentration of the test compound in nanomolar units required to displace 50% of SRIF from the pituitary cell receptor is calculated and reported in Table II as the IC50 value. Also calculated is the inhibitory constant, Ki.
Tyr^11S-14 (150,000 cpm at 2000 Ci/mmole, 250 pM final concentration). The binding reaction is initiated by adding 2-60µg of membrane protein in a 170 µL volume. Final reaction volume is 200 µl/well. All incubations are carried out at room temperature for 2 hours. Free radioligand is separated from bound ligand by rapid filtration through a glass fiber filter (IH-201-HA) using an Inotech cell harvester. The filter is then washed several times with cold (4°C) binding buffer lacking BSA and protease inhibitors prior to counting in an LKB gamma master counter (78% efficiency). Whatman GFC filters presoaked in 0.3% polyethylenimine (to decrease background) are used.
The IC50 values and Ki values are calculated using the well-known methods described by Y. Cheng and W. H. Prusoff, Biochem. Pharmacol. 22, 3099-3108 (1973), incorporated herein by reference thereto.

Row | Structure (SMILES) | % IA [1] | IC50 ([2]; membrane protein, read-out: SSTR2 Binding Affinity IC50) | Ki ([2]; calculated by Cheng and Prusoff, read-out: SSTR2 Binding Affinity Ki)
1 | C[C@@H](O)[C@@H]1NC(=O)[C@H](CCCCN)NC(=O)[C@@H](Cc2c[nH]c3ccccc23)NC(=O)[C@H](Cc2ccc(O)cc2)NC(=O)[C@H](NC(=O)[C@@H](N)Cc2ccc(I)cc2)CSSC[C@@H](C(=O)N[C@@H](Cc2ccc(O)cc2)C(N)=O)NC1=O | -12% | – | –
2 | NCCCC[C@@H]1NC(=O)[C@@H](Cc2c[nH]c3ccccc23)NC(=O)[C@H](Cc2ccc(O)cc2)NC(=O)[C@H](NC(=O)[C@@H](N)Cc2ccc([N+](=O)[O-])cc2)CSSC[C@@H](C(=O)N[C@@H](Cc2ccc3ccccc3c2)C(N)=O)NC(=O)[C@H](CO)NC1=O (H-[Phe(4-NO2)][dC]Y[dW]KSC[2Nal]-NH2; disulfide 2-7) | 7% | – | –
3 | CC(C)[C@@H]1NC(=O)[C@H](CCCCN)NC(=O)[C@@H](Cc2c[nH]c3ccccc23)NC(=O)[C@H](Cc2ccc(O)cc2)NC(=O)[C@H](NC(=O)[C@H](N)Cc2ccc([N+](=O)[O-])cc2)CSSC[C@@H](C(=O)N[C@@H](Cc2ccc(O)cc2)C(N)=O)NC1=O (H-[dPhe(4-NO2)][dC]Y[dW]KVCY-NH2; disulfide 2-7) | 42% | – | –
4 | CC(C)[C@@H]1NC(=O)[C@H](CCCCN)NC(=O)[C@@H](Cc2c[nH]c3ccccc23)NC(=O)[C@H](Cc2ccc(O)cc2)NC(=O)[C@H](NC(=O)[C@@H](N)Cc2ccc([N+](=O)[O-])cc2)CSSC[C@@H](C(=O)N(C)[C@@H](C)C(N)=O)NC1=O [H-p-NO2Phe-D-Cys-Tyr-D-Trp-Lys-Val-Cys-N(CH3)Ala-NH2] (H-[Phe(4-NO2)][dC]Y[dW]KVC[NMeA]-NH2; disulfide 2-7) | 29% | 55 nM | 24.4 nM

Source: patent EP0791603A2, “Pure somatostatin antagonist and methods of use thereof” (American Cyanamid Company, priority 1996, dated 1997)
